In general, IC50 refers to the concentration that inhibits the measured activity by half. Read a high IC50 as a need for much substance.

The subject of one assay is HBsAg. As to the kind of experiment: HBsAg assay (CLIA of secreted HBsAg in HepG2.2.15 culture supernatant). In kind it is cell-based, HBV. The following applies: Hepatitis B virus. As for the experimental part: (§1) HepG2.2.15 cells (Acs et al. Proc Natl Acad Sci USA, 84, (1987), 4641-4), a constitutively HBV-expressing cell line were cultured in DMEM+Glutamax-I medium (Invitrogen, Carlsbad, Calif., USA), supplemented with 10% fetal bovine serum (Invitrogen) and G418 (Invitrogen) at a final concentration of 200 mg/L and maintained in 5% CO2 at 37° C.
HepG2.2.15 cells were seeded in duplicate into white, 96-well plates at 1.5×10^4 cells/well. The cells were treated with a three-fold serial dilution series of the compounds in DMSO. The final DMSO concentration in all wells was 1% and DMSO was used as no drug control.
The HBsAg chemiluminescence immunoassay (CLIA) kit (Autobio Diagnostics Co., Zhengzhou, China, Catalog number: CL0310-2) was used to measure the levels of secreted HBV antigens semi-quantitatively. For the detection 50 μL/well culture supernatant was used and HBsAg was quantified using HBsAg chemiluminescence immunoassay (CLIA) kit (Autobio Diagnostics Co., Zhengzhou, China, Catalog number: CL0310-2), 50 μL of the supernatant was transferred to the CLIA assay plate and 50 μL of enzyme conjugate reagent was added into each well. The plates were sealed and gently agitated for 1 hour at room temperature. The supernatant-enzyme-mixture was discarded and wells were washed 6 times with 300 μL of PBS. The residual liquid was removed by plating the CLIA plate right side down on absorbent tissue paper. 25 μL of substrates A and B were added to each well. Luminance was measured using a luminometer (Mithras LB 940 Multimode Microplate Reader) after 10 minutes incubation. Dose-response curves were generated and the IC50 value was extrapolated by using the E-WorkBook Suite (ID Business Solutions Ltd., Guildford, UK). The IC50 was defined as the compound concentration at which HBsAg secretion was reduced by 50% compared to the no drug control.
The compounds according to formula I were tested for their capacity to inhibit HBsAg as described herein.
For `COc1cc(F)nc(N2CCc3nc(-c4cscn4)ncc3C2C)c1` (stereo not drawn) [Example 5, 4-[6-(6-Fluoro-4-methoxy-2-pyridyl)-5-methyl-7,8-dihydro-5H-pyrido[4,3-d]pyrimidin-2-yl]thiazole], it took 23 nM to reach half-maximal inhibition (IC50).

`COc1cc(F)nc(N2CCc3nc(-c4cnc(C)s4)ncc3C2C)c1` (stereo not drawn) [Example 16, 5-[6-(6-fluoro-4-methoxy-2-pyridyl)-5-methyl-7,8-dihydro-5H-pyrido[4,3-d]pyrimidin-2-yl]-2-methyl-thiazole] registered an IC50 of 25800 nM.

In turn, `CC1c2cnc(-c3cscn3)nc2CCN1c1cc(F)nc(N2CCCC2)c1` (stereo not drawn) [Example 17, 4-[6-(2-fluoro-6-pyrrolidin-1-yl-4-pyridyl)-5-methyl-7,8-dihydro-5H-pyrido[4,3-d]pyrimidin-2-yl]thiazole] showed an IC50 of 17 nM.

For `CC1c2cnc(-c3cscn3)nc2CCN1c1cc(N2CCCC2)cc(F)n1` (stereo not drawn) [Example 18, 4-[6-(6-fluoro-4-pyrrolidin-1-yl-2-pyridyl)-5-methyl-7,8-dihydro-5H-pyrido[4,3-d]pyrimidin-2-yl]thiazole], inhibition was half-maximal at 16 nM (IC50).

Turning to `CC1c2cnc(-c3cscn3)nc2CCN1c1cc(F)cc(N2CCCC2)n1` (stereo not drawn) [Example 19, 4-[6-(4-fluoro-6-pyrrolidin-1-yl-2-pyridyl)-5-methyl-7,8-dihydro-5H-pyrido[4,3-d]pyrimidin-2-yl]thiazole], the IC50 stood at 175 nM.

`CC1c2cnc(-c3cscn3)nc2CCN1c1cc(N2CCN(S(C)(=O)=O)CC2)cc(F)n1` (stereo not drawn) [Example 21, 4-[6-[6-fluoro-4-(4-methylsulfonylpiperazin-1-yl)-2-pyridyl]-5-methyl-7,8-dihydro-5H-pyrido[4,3-d]pyrimidin-2-yl]thiazole] registered an IC50 of 16 nM.

As to `CC1c2cnc(-c3cscn3)nc2CCN1c1cc(F)cc(N2CCN(S(C)(=O)=O)CC2)n1` (stereo not drawn) [Example 22, 4-[6-[4-fluoro-6-(4-methylsulfonylpiperazin-1-yl)-2-pyridyl]-5-methyl-7,8-dihydro-5H-pyrido[4,3-d]pyrimidin-2-yl]thiazole], inhibition was half-maximal at 66 nM (IC50).

For `COC1CCN(c2cc(N3CCc4nc(-c5cscn5)ncc4C3C)cc(F)n2)C1` (stereo not drawn) [Example 23, 4-[6-[2-fluoro-6-(3-methoxypyrrolidin-1-yl)-4-pyridyl]-5-methyl-7,8-dihydro-5H-pyrido[4,3-d]pyrimidin-2-yl]thiazole], the IC50 was determined as 35 nM.

For the compound `COC1CCN(c2cc(F)nc(N3CCc4nc(-c5cscn5)ncc4C3C)c2)C1` (stereo not drawn) [Example 24, 4-[6-[6-fluoro-4-(3-methoxypyrrolidin-1-yl)-2-pyridyl]-5-methyl-7,8-dihydro-5H-pyrido[4,3-d]pyrimidin-2-yl]thiazole], inhibition was half-maximal at 23 nM (IC50).

`COC1CCN(c2cc(F)cc(N3CCc4nc(-c5cscn5)ncc4C3C)n2)C1` (stereo not drawn) [Example 25, 4-[6-[4-fluoro-6-(3-methoxypyrrolidin-1-yl)-2-pyridyl]-5-methyl-7,8-dihydro-5H-pyrido[4,3-d]pyrimidin-2-yl]thiazole] showed a concentration for half-maximal inhibition (IC50) of 60 nM.

The compound `COc1cc(F)nc(N2CCc3nc(-c4cc[nH]n4)ncc3C2C)c1` (stereo not drawn) [Example 27, 6-(6-Fluoro-4-methoxy-2-pyridyl)-5-methyl-2-(1H-pyrazol-3-yl)-7,8-dihydro-5H-pyrido[4,3-d]pyrimidine] showed an IC50 of 230 nM.

`CC1c2cnc(-c3cscn3)nc2CCN1c1cc(F)nc(N2CCNC(=O)C2)c1` (stereo not drawn) [Example 28, 4-[6-fluoro-4-(5-methyl-2-thiazol-4-yl-7,8-dihydro-5H-pyrido[4,3-d]pyrimidin-6-yl)-2-pyridyl]piperazin-2-one] came in with a 50% inhibitory concentration (IC50) of 42 nM.

In the case of `CC1c2cnc(-c3cscn3)nc2CCN1c1cc(N2CCNC(=O)C2)cc(F)n1` (stereo not drawn) [Example 29, 4-[2-fluoro-6-(5-methyl-2-thiazol-4-yl-7,8-dihydro-5H-pyrido[4,3-d]pyrimidin-6-yl)-4-pyridyl]piperazin-2-one], the IC50 turned out to be 34 nM.

Compound `CC1c2cnc(-c3cscn3)nc2CCN1c1cc(F)cc(N2CCNC(=O)C2)n1` (stereo not drawn) [Example 30, 4-[4-fluoro-6-(5-methyl-2-thiazol-4-yl-7,8-dihydro-5H-pyrido[4,3-d]pyrimidin-6-yl)-2-pyridyl]piperazin-2-one] displayed an IC50 of 21 nM.

In turn, `CC1c2cnc(-c3cscn3)nc2CCN1c1cc(F)nc(OCC2CC2)c1` (stereo not drawn) [Example 31, 4-[6-[2-(cyclopropylmethoxy)-6-fluoro-4-pyridyl]-5-methyl-7,8-dihydro-5H-pyrido[4,3-d]pyrimidin-2-yl]thiazole] displayed an IC50 of 117 nM.

`CC1c2cnc(-c3cscn3)nc2CCN1c1cc(OCC2CC2)cc(F)n1` (stereo not drawn) [Example 32, 4-[6-[4-(cyclopropylmethoxy)-6-fluoro-2-pyridyl]-5-methyl-7,8-dihydro-5H-pyrido[4,3-d]pyrimidin-2-yl]thiazole] showed a 50% inhibitory concentration (IC50) of 39 nM.

As for `CC1c2cnc(-c3cscn3)nc2CCN1c1cc(F)cc(OCC2CC2)n1` (stereo not drawn) [Example 33, 4-[6-[6-(cyclopropylmethoxy)-4-fluoro-2-pyridyl]-5-methyl-7,8-dihydro-5H-pyrido[4,3-d]pyrimidin-2-yl]thiazole], 212 nM corresponded to half-maximal inhibition (IC50).

With `CC1c2cnc(-c3cscn3)nc2CCN1c1cc(F)nc(OCC(F)F)c1` (stereo not drawn) [Example 34, 4-[6-[2-(2,2-difluoroethoxy)-6-fluoro-4-pyridyl]-5-methyl-7,8-dihydro-5H-pyrido[4,3-d]pyrimidin-2-yl]thiazole], the midpoint of inhibition, the IC50, lay at 140 nM.

`CC1c2cnc(-c3cscn3)nc2CCN1c1cc(OCC(F)F)cc(F)n1` (stereo not drawn) [Example 35, 4-[6-[4-(2,2-difluoroethoxy)-6-fluoro-2-pyridyl]-5-methyl-7,8-dihydro-5H-pyrido[4,3-d]pyrimidin-2-yl]thiazole]: the midpoint of inhibition, the IC50, lay at 39 nM.

Consider `CC1c2cnc(-c3cscn3)nc2CCN1c1cc(F)cc(OCC(F)F)n1` (stereo not drawn) [Example 36, 4-[6-[6-(2,2-difluoroethoxy)-4-fluoro-2-pyridyl]-5-methyl-7,8-dihydro-5H-pyrido[4,3-d]pyrimidin-2-yl]thiazole], for which half-maximal inhibition (IC50) was put at 112 nM.

Turning to `CC1c2cnc(-c3cscn3)nc2CCN1c1cc(F)nc(OCC2CCOC2)c1` (stereo not drawn) [Example 37, 4-[6-[2-fluoro-6-(tetrahydrofuran-3-ylmethoxy)-4-pyridyl]-5-methyl-7,8-dihydro-5H-pyrido[4,3-d]pyrimidin-2-yl]thiazole], the midpoint of inhibition, the IC50, lay at 70 nM.

Compound `CC1c2cnc(-c3cscn3)nc2CCN1c1cc(OCC2CCOC2)cc(F)n1` (stereo not drawn) [Example 38, 4-[6-[6-fluoro-4-(tetrahydrofuran-3-ylmethoxy)-2-pyridyl]-5-methyl-7,8-dihydro-5H-pyrido[4,3-d]pyrimidin-2-yl]thiazole] had an IC50 of 20 nM.

The compound `CC1c2cnc(-c3cscn3)nc2CCN1c1cc(F)cc(OCC2CCOC2)n1` (stereo not drawn) [Example 39, 4-[6-[4-fluoro-6-(tetrahydrofuran-3-ylmethoxy)-2-pyridyl]-5-methyl-7,8-dihydro-5H-pyrido[4,3-d]pyrimidin-2-yl]thiazole] returned an IC50 of 139 nM.

The compound `CC1c2cnc(-c3cscn3)nc2CCN1c1cc(F)nc(OCCCN2CCCC2=O)c1` (stereo not drawn) [Example 40, 1-[3-[[6-fluoro-4-(5-methyl-2-thiazol-4-yl-7,8-dihydro-5H-pyrido[4,3-d]pyrimidin-6-yl)-2-pyridyl]oxy]propyl]pyrrolidin-2-one] gave an IC50 of 222 nM.

For `CC1c2cnc(-c3cscn3)nc2CCN1c1cc(OCCCN2CCCC2=O)cc(F)n1` (stereo not drawn) [Example 41, 1-[3-[[2-fluoro-6-(5-methyl-2-thiazol-4-yl-7,8-dihydro-5H-pyrido[4,3-d]pyrimidin-6-yl)-4-pyridyl]oxy]propyl]pyrrolidin-2-one], half-maximal inhibition (IC50) was put at 102 nM.

The compound `COc1cc(F)nc(N2CCc3nc(-c4ncsc4C)ncc3C2C)c1` (stereo not drawn) [Example 42, 4-[6-(6-Fluoro-4-methoxy-2-pyridyl)-5-methyl-7,8-dihydro-5H-pyrido[4,3-d]pyrimidin-2-yl]-5-methyl-thiazole] came in with an IC50 of 282 nM.

The subject of the next assay is HBV DNA. As to the kind of experiment: HBV DNA assay (real-time qPCR/TaqMan of extracellular HBV DNA, HepG2.2.15 cells). Conditions: Hepatitis B virus, 144 h; Anti HBV DNA production activity in HepG2.2.15 cells, supernatant, six days after treatment. In kind it is cell-based. As for the experimental part:
as §1
The assay employs real-time qPCR (TaqMan) to directly measure extracellular HBV DNA copy number in the cell supernatant. HepG2.2.15 cells were plated in 96-well microtiter plates before treatment with complete medium (DMEM, Glutamax, 10% FBS, 1% Penicillin/Streptomycin, 250 μg/mL Genetycin, final DMSO concentration is 1%). Only the interior wells were utilized to reduce “edge effects” observed during cell culture, the exterior wells were filled with complete medium to help minimize sample evaporation. The HepG2.2.15 cells were treated 1 h later with various concentrations of a test compound in duplicate (top concentration used at 5 μM, 2 μM or 0.5 μM according to the HBsAg IC50 observed, with 1/3 successive dilutions (total of 10 dilutions). Six days following the initial administration of the test compound, the cell culture supernatant was collected; DNA extraction was performed by automated system (Magnapure) and then used in a real-time qPCR/TaqMan assay to determine HBV DNA copy numbers. Antiviral activity was calculated from the reduction in HBV DNA levels (IC50). The compounds of the present invention were tested for their capacity to inhibit HBV DNA as described herein.
Consider `COc1cc(F)nc(N2CCc3nc(-c4cscn4)ncc3C2C)c1` (stereo not drawn) [Example 5, 4-[6-(6-Fluoro-4-methoxy-2-pyridyl)-5-methyl-7,8-dihydro-5H-pyrido[4,3-d]pyrimidin-2-yl]thiazole], for which the IC50 came to 8.7 nM.

(Values after US10968218B2, “Tetrahydropyridopyrimidines for the treatment and prophylaxis of hepatitis B virus infection” (Hoffmann-La Roche Inc., priority 2016, dated 2021).)
